Literature values as cited in US20040202615A1, “Melt-processed powder containing particles' repulsion agent, evaporation retardant, and means for benefit to plant cultivation and/or animal husbandry” (priority 2003, published 2004).

Test system: natural living organisms in water
Conditions: active ingredient level 0.04-1.0% in plastic pool and pit liners

CCCCCCCCn1sccc1=O [2-o-octyl-4-isothiazolin-3-one]
slowing of degradation of plastic liners by natural living organisms: significantly slows down their degradation
